Data on 13 molecules can be found in patent US11046709B2, “Fused 1,4-diazepines as BET bromodomain inhibitors” (THE REGENTS OF THE UNIVERSITY OF MICHIGAN, priority 2017, dated 2021).

Each structure is given as a SMILES string.

The target of one data set is T1, recombinant BRD4 BD2 (Homo sapiens, UniProt O60885).
T1 construct: for recombinant BRD4 BD1 and BRD4 BD2 proteins
In words: Competitive fluorescence-polarization (FP) binding assay, BRD4 BD2. The settings on record: competitive FP, Table 6; read-out: IC50 as determinined in FP assays BRD4 BD2.

Data set [1] can be described thus: Plasma exposure after oral gavage in mice, LC-MS/MS. It counts as in vivo. The settings on record: mouse, plasma, mice, oral gavage 25 mg/kg; for concentration at 1 h: read-out: Plasma concentration (ng/mL) 1 h; for concentration at 3 h: read-out: Plasma concentration (ng/mL) 3 h; for concentration at 6 h: read-out: Plasma concentration (ng/mL) 6 h. The protocol: For a number of representative compounds in Table 5, their plasma exposures with oral administration in mice via oral gavage were determined by LC-MS/MS, with the data shown in Table 9.

The target of another data set is T2, recombinant BRD4 BD1 (Homo sapiens, UniProt O60885).
T2 construct: for recombinant BRD4 BD1 and BRD4 BD2 proteins
The data set is described as follows: Competitive fluorescence-polarization (FP) binding assay, BRD4 BD1. The settings on record: competitive FP, Table 6; read-out: IC50 as determinined in FP assays BRD4 BD1. As for the experimental part: Fluorescence Polarization (FP) competitive binding studies were carried out using a FAM labeled fluorescent probe, see, e.g., Cpd. No. 350 of US 2014/0256706, to determine binding affinities of representative Compounds of the Disclosure for recombinant BRD4 BD1 and BRD4 BD2 proteins. Equilibrium dissociation constants (Kd) values of the fluorescent probe to BRD4 BD1 and BD2 proteins were determined from protein saturation experiments by monitoring the total fluorescence polarization of mixtures composed with the fluorescent probe at a fixed concentration and proteins with increasing concentrations up to full saturation. Serial dilutions of testing proteins were mixed with the fluorescent probe to a final volume of 200 μl in the assay buffer (100 mM phosphate buffer, pH=6.5, 0.01% Triton X-100 (Sigma, 282103) being added right before assays). Final fluorescent probe concentration was 1.5 nM for both proteins. Plates were incubated at room temperature for 30 minutes with gentle shaking to assure equilibrium. FP values in millipolarization units (mP) were measured using the Infinite M-1000 plate reader (Tecan U.S., Research Triangle Park, N.C.) in Microfluor 1 96-well, black, round-bottom plates (Thermo Scientific, Waltham, Mass.) at an excitation wavelength of 485 nm and an emission wavelength of 530 nm. Kd values of the fluorescent probe, which were calculated by fitting the sigmoidal dose-dependent FP increases as a function of protein concentrations using Graphpad Prism 6.0 software (Graphpad Software, San Diego, Calif.), are 5.5 and 3.0 nM to BDR4 BD1 and 2, respectively.
The IC50 and Ki values of compounds were determined in a competitive binding experiment. See US 2014/0256706. Mixtures of 10 μl of the tested compounds in assay buffer with 40% Ethylene Glycol and 190 μl of preincubated protein/probe complex solution in the assay buffer (100 mM potassium phosphate, pH 6.5, 0.01% Triton X-100) were added into assay plates which were incubated at room temperature for 30 minutes with gentle shaking. Final concentrations of proteins were 10 and 6 nM in assays for BRD4 BD1 and BD2, respectively. Final probe concentration is 1.5 nM in both assays. Negative controls containing protein/probe complex only (equivalent to 0% inhibition), and positive controls containing only free probes (equivalent to 100% inhibition), were included in each assay plate. FP values were measured as described above. IC50 values were determined by nonlinear regression fitting of the competition curves. Instead of being calculated from IC50 values as described before. Ki values of competitive inhibitors were obtained directly by nonlinear regression fitting as well, based upon the Kd values of the probe to different proteins, and concentrations of the proteins and probes in the competitive assays (US 2014/0256706; Wang, FEBS Lett. 360:111 (1995); Zhang et al., Analytical Biochemistry, 331:138 (2004)).
Representative compounds in Table 5 were evaluated for their binding affinities to BRD4 BD1 and BD2 proteins using the Competitive Fluorescence-Polarization (FP) Assays described in Example 6, with the data included in Table 6.

For another data set, the system named is MDA-MB-231. In words: Cell growth inhibition, 4-day proliferation assay, MDA-MB-231. It counts as cell-based. Conditions: Homo sapiens, MDA-MB-231; WST-8 assay, Table 7; read-out: Cell growth inhibition (IC50 (nM)) MDA-MB-231. The method in brief:
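Cells seeded at 3,000-10,000/well, treated with serially diluted compounds 4 days at 37 °C, 5% CO2. Viability by WST-8 (10% v/v, 1-2 h, A450); readings normalized to DMSO-treated cells, IC50 by four-parameter nonlinear regression.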
A general note: Formazan colour is commonly taken as a measure of viable cells.

The subject of the next data set is MOLM-13. The data set is described as follows: Cell growth inhibition, 4-day proliferation assay, MOLM-13. It counts as cell-based. The settings on record: Homo sapiens, MOLM-13, WST-8 assay, Table 7; read-out: Cell growth inhibition (IC50 (nM)) MOLM-13.

The term IC50 denotes the point on the concentration scale where inhibition reaches its midpoint. For `Cc1c(C#Cc2ccccn2)sc2c1C(c1ccc(Cl)cc1)=N[C@@H](CC(=O)N1CCN(C)CC1)c1nnc(C)n1-2` [Compound 119, (S)-2-(4-(4-chlorophenyl)-3,9-dimethyl-2-(pyridin-2-ylethynyl)-6H-thieno[3,2-f][1,2,4]triazolo[4,3-a][1,4]diazepin-6-yl)-1-(4-methylpiperazin-1-yl)ethan-1-one], the IC50 was found to be 140 nM on recombinant BRD4 BD2, 6.9 nM on recombinant BRD4 BD1, 38.1 nM in the data set on MDA-MB-231 and 20.9 nM in the data set on MOLM-13. Besides, the concentration at 1 h in data set [1] worked out at 632 ng/mL. The concentration at 3 h in data set [1] worked out at 370 ng/mL. For the same molecule, in data set [1], the concentration at 6 h was 52 ng/mL.

For `Cc1c(C#Cc2ccccn2)sc2c1C(c1ccc(Cl)cc1)=N[C@@H](CC(=O)Nc1ccc(O)cc1)c1nnc(C)n1-2` [Compound 125, (S)-2-(4-(4-chlorophenyl)-3,9-dimethyl-2-(pyridin-2-ylethynyl)-6H-thieno[3,2-f][1,2,4]triazolo[4,3-a][1,4]diazepin-6-yl)-N-(4-hydroxyphenyl)acetamide], the IC50 on recombinant BRD4 BD2 was 13.9 nM; on recombinant BRD4 BD1, 10.2 nM; with MDA-MB-231, 132 nM; in the data set on MOLM-13, 31 nM. Also, the concentration at 1 h in data set [1] was found to be 2520 ng/mL. Also, the concentration at 3 h in data set [1] came out at 407 ng/mL. Also, the concentration at 6 h in data set [1] amounted to 83 ng/mL.

For `Cc1c(C#Cc2cccnc2)sc2c1C(c1ccc(Cl)cc1)=N[C@@H](CC(=O)N1CCN(C)CC1)c1nnc(C)n1-2` [Compound 115, (S)-2-(4-(4-chlorophenyl)-3,9-dimethyl-2-(pyridin-3-ylethynyl)-6H-thieno[3,2-f][1,2,4]triazolo[4,3-a][1,4]diazepin-6-yl)-1-(4-methylpiperazin-1-yl)ethan-1-one], the IC50 at recombinant BRD4 BD2 was 6.3 nM; at recombinant BRD4 BD1 it was 9.6 nM; in the data set with MDA-MB-231, 65.1 nM; with MOLM-13, 21.9 nM.

On to `Cc1c(C#Cc2ccccn2)sc2c1C(c1ccc(Cl)cc1)=N[C@@H](CC(=O)NC1CCNCC1)c1nnc(C)n1-2` [Compound 131, (S)-2-(4-(4-chlorophenyl)-3,9-dimethyl-2-(pyridin-2-ylethynyl)-6H-thieno[3,2-f][1,2,4]triazolo[4,3-a][1,4]diazepin-6-yl)-N-(piperidin-4-yl)acetamide], for which the IC50 was determined as 26.9 nM on recombinant BRD4 BD2, 12.6 nM on recombinant BRD4 BD1, 243 nM with MDA-MB-231 and 188 nM with MOLM-13.

Regarding `Cc1c(C#Cc2ccccn2)sc2c1C(c1ccc(Cl)cc1)=N[C@@H](CC(=O)NC1CCN(C)CC1)c1nnc(C)n1-2` [Compound 130, (S)-2-(4-(4-chlorophenyl)-3,9-dimethyl-2-(pyridin-2-ylethynyl)-6H-thieno[3,2-f][1,2,4]triazolo[4,3-a][1,4]diazepin-6-yl)-N-(1-methylpiperidin-4-yl)acetamide], the IC50 on recombinant BRD4 BD2 was 19 nM; on recombinant BRD4 BD1, 8.7 nM; in the data set on MDA-MB-231, 13 nM; in the data set with MOLM-13, 3.84 nM.

As to `Cc1c(C#Cc2cccnc2)sc2c1C(c1ccc(Cl)cc1)=N[C@@H](CC(=O)OC(C)(C)C)c1nnc(C)n1-2` [Compound 111, tert-butyl (S)-2-(4-(4-chlorophenyl)-3,9-dimethyl-2-(pyridin-3-ylethynyl)-6H-thieno[3,2-f][1,2,4]triazolo[4,3-a][1,4]diazepin-6-yl)acetate], the IC50 at recombinant BRD4 BD2 amounted to 17 nM; at recombinant BRD4 BD1, 4.8 nM; in the data set on MDA-MB-231, 98.6 nM; with MOLM-13, 32.7 nM.

With `Cc1c(C#Cc2cccnc2)sc2c1C(c1ccc(Cl)cc1)=N[C@@H](CC(=O)N1CCC(O)CC1)c1nnc(C)n1-2` [Compound 117, (S)-2-(4-(4-chlorophenyl)-3,9-dimethyl-2-(pyridin-3-ylethynyl)-6H-thieno[3,2-f][1,2,4]triazolo[4,3-a][1,4]diazepin-6-yl)-1-(4-hydroxypiperidin-1-yl)ethan-1-one], the IC50 at recombinant BRD4 BD2 came out at 10.4 nM; on recombinant BRD4 BD1 it was 6.3 nM; in the data set with MDA-MB-231, 79.6 nM; with MOLM-13, 19.8 nM.

Take `Cc1c(C#Cc2ccccn2)sc2c1C(c1ccc(Cl)cc1)=N[C@@H](CC(C)C)c1nnc(C)n1-2` [Compound 105, (S)-4-(4-chlorophenyl)-6-isobutyl-3,9-dimethyl-2-(pyridin-2-ylethynyl)-6H-thieno[3,2-f][1,2,4]triazolo[4,3-a][1,4]diazepine]: the IC50 was determined as 26.5 nM at recombinant BRD4 BD2, 33.9 nM at recombinant BRD4 BD1, 400 ± 200 nM in the data set with MDA-MB-231 and 348 nM in the data set on MOLM-13.

With `Cc1c(C#Cc2ccccn2)sc2c1C(c1ccc(Cl)cc1)=N[C@@H](Cc1nnc(C(C)C)o1)c1nnc(C)n1-2` [Compound 135, (S)-2-((4-(4-chlorophenyl)-3,9-dimethyl-2-(pyridin-2-ylethynyl)-6H-thieno[3,2-f][1,2,4]triazolo[4,3-a][1,4]diazepin-6-yl)methyl)-5-isopropyl-1,3,4-oxadiazole], the IC50 on recombinant BRD4 BD2 amounted to 45 nM; on recombinant BRD4 BD1 it was 10 nM; in the data set with MDA-MB-231 it was 24.5 nM; with MOLM-13, 13.8 nM.

Consider `Cc1c(C#Cc2cccnc2)sc2c1C(c1ccc(Cl)cc1)=N[C@@H](CC(=O)N1CCNCC1)c1nnc(C)n1-2` [Compound 116, (S)-2-(4-(4-chlorophenyl)-3,9-dimethyl-2-(pyridin-3-ylethynyl)-6H-thieno[3,2-f][1,2,4]triazolo[4,3-a][1,4]diazepin-6-yl)-1-(piperazin-1-yl)ethan-1-one], for which the IC50 was 122 nM on recombinant BRD4 BD2, 10.4 nM at recombinant BRD4 BD1, 45.3 nM with MDA-MB-231 and 17.3 nM in the data set with MOLM-13.

With `Cc1c(C#Cc2ccccn2)sc2c1C(c1ccc(Cl)cc1)=N[C@@H](CC(=O)N1CCC(F)(F)CC1)c1nnc(C)n1-2` [Compound 132, (S)-2-(4-(4-chlorophenyl)-3,9-dimethyl-2-(pyridin-2-ylethynyl)-6H-thieno[3,2-f][1,2,4]triazolo[4,3-a][1,4]diazepin-6-yl)-1-(4,4-difluoropiperidin-1-yl)ethan-1-one], the IC50 at recombinant BRD4 BD2 was 33.5 nM; at recombinant BRD4 BD1 it was 22.4 nM; in the data set with MDA-MB-231, 91.9 nM; in the data set on MOLM-13, 80 to 160 nM.

Take `Cc1c(C#Cc2ccc(N)nc2)sc2c1C(c1ccc(Cl)cc1)=N[C@@H](CC(N)=O)c1nnc(C)n1-2` [Compound 121, (S)-2-(2-((6-aminopyridin-3-yl)ethynyl)-4-(4-chlorophenyl)-3,9-dimethyl-6H-thieno[3,2-f][1,2,4]triazolo[4,3-a][1,4]diazepin-6-yl)acetamide]: the IC50 on recombinant BRD4 BD2 is 8.4 nM; at recombinant BRD4 BD1 it was 10.6 nM; with MDA-MB-231 it was 21.9 nM; in the data set with MOLM-13 it was 4.76 nM.

As for `Cc1c(C#Cc2ccc(N)nc2)sc2c1C(c1ccc(Cl)cc1)=N[C@@H](CC(=O)N1CCN(C)CC1)c1nnc(C)n1-2` [Compound 120, (S)-2-(2-((6-aminopyridin-3-yl)ethynyl)-4-(4-chlorophenyl)-3,9-dimethyl-6H-thieno[3,2-f][1,2,4]triazolo[4,3-a][1,4]diazepin-6-yl)-1-(4-methylpiperazin-1-yl)ethan-1-one], the IC50 at recombinant BRD4 BD2 came out at 4.9 nM; on recombinant BRD4 BD1, 5.3 nM; in the data set with MDA-MB-231, 9.74 nM; in the data set with MOLM-13, 9.64 nM.
